# Assay results reported in patent US10233198B2, “Pro-drugs of NSAIAs with very high skin and membranes penetration rates and their new medicinal uses” (Techfields Pharma Co., Ltd., priority 2007, dated 2019).
# Key:
# Chinese White rabbits = experiment: Malassezia-induced psoriasis-like lesions; type: in vivo; settings: 5% aqueous solution applied twice per day; 10 days after the application
# Description: COX-1 and COX-2 play a very important role in animal immune-responses. NSAIAs inhibite COX-1 and COX-2. The pro-drugs of NSAIAs in this invention may be very useful for treating psoriasis, discoid lupus erythematosus, systemic lupus erythematosus (SLE), and other autoimmune diseases. Heavy suspensions of Malassezia [Rosenberg, E. W., et al., Mycopathologia, 72, 147-154 (1980)] were applied to the shaved skin on the backs of the Chinese white rabbits (n=4×6) twice (at 7 am and 7 pm) per day for 2 weeks, lesions similar to psoriasis resulted.
# [1] = test system: human breast cancer cells (BCAP-37); experiment: Anti-tumor activity, human breast cancer xenograft in nude mice, topical; settings: day 42; 30 μl of 5% (1.5 mg) topically every 8 hours; BCAP-37 xenograft; in g (unit assumed)
# Method: For evaluation of anti-tumor activity of the pro-drugs of NSAIAs, human breast cancer cells (BCAP-37, 2-3 mm^3 of tumor tissue was used in each mouse) were subcutaneously xenografted into nude mice (BALE, 12 groups, 7 mice each group). After 14 days, the tumors were growing to the size of 50±10 mm^3 (0.05 ml). Then 30 μl of 5% (equal to 1.5 mg of the pro-drugs) diethylaminoethyl acetylsalicylate.acetylsalicylic acid salt (P-1, in acetone); 1-piperidinepropyl 2[(2,6-dichlorophenyl)amino]benzene acetate.AcOH (P-2, in water), 1-pyrrolidinepropyl 2-(3-benzoylphenyl) propionate.AcOH (P-3, in water), 4-piperidinemethyl 2-(3-phenoxyphenyl)propionate.AcOH (P-4, in water), 3-piperidinemethyl 2-(ρ-isobutylphenyl) propionate.AcOH (P-5, in water), diethylaminoethyl 1-(p-chlorobenzoyl)-5-methoxy-2-methylindole 3-acetate.AcOH (P-11, in water), 2-(4-morpholinyl)ethyl (Z)-5-fluoro-2-methyl-1-[(4-methylsulfinyl) phenylmethylene]-1H-indene-3-acetate.AcOH (P-12, in water), diethylaminoethyl 2-(2,4-dichlorophenoxy)benzeneacetate.AcOH (P-19, in water), diethylaminoethyl 2-(8-methyl-10, 11-dihydro-11-oxodibenz(b,f)oxepin-2-yl)propionate.AcOH (P-37, in water), 1-pyrrolidinepropyl 2-[[(3-(trifluoromethyl)phenyl)amino]benzoate.AcOH (P-48, in water), 4-N,N-dimethylaminobutyryloxy-2-methyl-N-2-pyridinyl-2H,1,2-benzothiazine-3-carb oxamide 1,1-dioxide.HCl (P-51, in acetone) was topically applied to the human breast cancer cells-implanted area (near the front leg) every 8 hours.
# [2] = test system: human colon cancer cells (LS174J); experiment: Anti-tumor activity, human colon cancer xenograft in nude mice, topical; settings: day 30, about 30 μl of 5% (1.5 mg) topically every 8 hours from day 7
# Method: In the second anti-tumor experiment, human colon cancer cells (LS174J, 2-3 mm^3 of tumor tissue was used in each mouse) were subcutaneously xenografted into nude mice (BALB). After 7 days, the tumors were growing to the size of 55±10 mm^3 (0.055 ml). Then about 30 μl of 5% (equal to 1.5 mg of the pro-drugs) diethylaminoethyl acetylsalicylate.acetylsalicylic acid salt (P-1, in acetone); 1-piperidinepropyl 2[(2,6-dichlorophenyl)amino]benzene acetate.AcOH (P-2, in water), 1-pyrrolidinepropyl 2-(3-benzoylphenyl) propionate.AcOH (P-3, in water), 4-piperidinemethyl 2-(3-phenoxyphenyl)propionate.AcOH (P-4, in water), 3-piperidinemethyl 2-(ρ-isobutylphenyl) propionate.AcOH (P-5, in water), diethylaminoethyl 1-methyl-5-(4-methylbenzoyl)-1H-pyrrole-2-acetate.AcOH (P-13, in water), 2-(4-morpholinyl)ethyl 2-amino-3-benzoylbenzeneacetateAcOH (P-16, in water), diethylaminoethyl 2-(10,11-dihydro-10-oxodibenzo(b,f)thiepin-2-yl)propionate.AcOH (P-36), diethylaminoethyl 2-[(2,3-dimethylphenypamino]benzoate.AcOH (P-46, in water), diethylaminoethyl 2-[(2,6-dichloro-3-methylphenyl)amino]benzoate.AcOH (P47, in water), N-(2-thiazoyl)-4-N,N-dimethylaminobutyryloxy-2-methyl-2H,1,2-benzothiazine-3-car boxamide 1,1-dioxide.HCl (P-52, in acetone) was topically applied to the human colon cancer cells-implanted area (near the front leg) every 8 hours.
# [3] = test system: SLAC/GK rats, type 2 diabetes; experiment: Blood lipid levels in type 2 diabetic rats, oral with food; type: in vivo; settings: for Triglycerides, Baseline: baseline of the treatment group
# Description: The pH of stomach juice is 1-3. The negative charge on the phosphate head group of membrane is neutralized by the proton and the positive charge on the amino groups of these pro-drugs cannot bond to the phosphate head group of membranes, then the pro-drugs cannot pass through the wall of the stomach and will not hurt or upset the stomach. The pH of the duodenum is about 5-7 and the pro-drugs can pass through the mucosa of duodenum. The pancreas is nearby and large amount of the pro-drugs will enter there before going to the liver, kidneys, and the general circulation where the drug will be metabolized, so only very low dose of these pro-drugs are needed and very few and low side effects will be caused. The 20% acetone solution of diethylaminoethyl acetylsalicylate.acetylsalicylic acid salt (P-1, in acetone); 4-acetamidophenyl salicylyldimethylaminobutyrate.HCl (P-6), diethylaminoethyl 5-(2,4-difluorophenyl) acetylsalicylate.5-(2,4-difluorophenyl) acetylsalicylic acid salt (P-8), diethylaminoethyl salicylsalicylate.AcOH (P-9), diethylaminoethyl salicylate.AcOH (P-10), diethylaminoethyl 5-acetamido-acetylsalicylate (P-58), diethylaminoethyl acetylsalicylsalicylate. acetylsalicylsalicylic acid salt (P-59), diethylaminoethyl acetylsalicylsalicylate. acetylsalicylsalicylsalicylic acid salt (P-60) (equal to of 15 mg/kg of NSAIAs) were mixed with food and were orally administered to the rats (SLAC/GK, type 2 diabetes, n=7) with food every day for 5 weeks. The blood glucose levels were measured once every 3 days at 3 pm (no fasting) from the second week to the fifth week. The blood lipid levels were measured at the end of the fifth week.
# [4] = test system: SLAC/GK rats, type 2 diabetes; experiment: Blood lipid levels in type 2 diabetic rats, transdermal; type: in vivo; settings: for Cholesterol (total), Average: end of fifth week, transdermal, equal to 20 mg/kg of NSAIAs once per day
# Description: (§1) The pro-drugs in this invention lower blood glucose levels in rat models (SLAC/GK, type 2 diabetes, n=7). 50% acetone solution of diethylaminoethyl acetylsalicylate.acetylsaficylic acid salt (P-1, in acetone); 4-acetamidophenyl salicylyldimethylaminobutyrate.HCl (P-6), diethylaminoethyl 5-(2,4-difluorophenyl) acetylsalicylate.5-(2,4-difluorophenyl) acetylsalicylic acid salt (P-8), diethylaminoethyl salicylsalicylate.AcOH (P-9), diethylaminoethyl salicylate.AcOH (P-10), diethylaminoethyl 5-acetamido-acetylsalicylate (P-58), diethylaminoethyl acetylsalicylsalicylate. acetylsalicylsalicylic acid salt (P-59), diethylaminoethyl acetylsalicylsalicylate. acetylsalicylsalicylsalicylic acid salt (P-60) (equal to of 20 mg/kg of NSAIAs) were administered transdermally to the backs (about 1.5 cm^2) of rats (fur was shaved) once per day (at 8 am) for 5 weeks. The blood glucose levels were measured once every 3 days at 4 pm (no fasting) from the second week to the fifth week. The blood lipid levels were measured at the end of the fifth week.
# [5] = test system: SLAC:NOD-IDDM mice, type 1 diabetes; experiment: Blood glucose in type 1 diabetic mice, transdermal; type: in vivo; settings: no fasting; for Blood glucose, type I diabetic mice, Baseline: baseline of the treatment group; for Blood glucose, type I diabetic mice, Average: transdermal, equal to 20 mg/kg of NSAIAs once per day for 7 weeks, fourth to seventh week
# Description: The pro-drugs in this invention lower blood glucose levels in mouse models (SLAC:NOD-IDDM, type 1 diabetes, n=7). 20% acetone solution of diethylaminoethyl acetylsalicylate.acetylsalicylic acid salt (P-1, in acetone); 4-acetamidophenyl salicylyldimethylaminobutyrate.HCl (P-6), diethylaminoethyl 5-(2,4-difluorophenyl) acetylsalicylate.5-(2,4-difluorophenyl) acetylsalicylic acid salt (P-8), diethylaminoethyl salicylsalicylate.AcOH (P-9), diethylaminoethyl salicylate.AcOH (P-10), diethylaminoethyl 5-acetamido-acetylsalicylate (P-58), diethylaminoethyl acetylsalicylsalicylate. acetylsalicylsalicylic acid salt (P-59), diethylaminoethyl acetylsalicylsalicylate. acetylsalicylsalicylsalicylic acid salt (P-60) (equal to of 20 mg/kg of NSAIAs) were administered transdermally to the backs (about 1 cm^2) of mice (fur was shaved) once per day (at 8 am) for 7 weeks. The blood glucose levels were measured once every 3 days at 3 pm (no fasting) from the fourth week to the seventh week.
# [6] = test system: SLAC/GK rats, type 2 diabetes; experiment: Blood glucose in type 2 diabetic rats, transdermal; type: in vivo; settings: no fasting; for Blood glucose, diabetic rats, Baseline: baseline of the treatment group
# Description: as §1
# normal rats = experiment: Blood glucose in normal rats, transdermal; type: in vivo; settings: no fasting; for Blood glucose, normal rats, Average: transdermal, equal to 20 mg/kg of NSAIAs once per day for 5 weeks, second to fifth week
# [7] = In vivo penetration through skin of intact rats; distribution in plasma and tissues; settings: 4 hours after 20% parent drug in 1 ml ethanol on about 5 cm^2 of rat back; blood, liver, kidney, brain
# [8] = end of fifth week, oral with food, equal to 15 mg/kg of NSAIAs every day
# [9] = baseline of the treatment group
smiles,measurement,setting,value
"CC(=O)O.CC(C)Cc1ccc(C(C)C(=O)OCC2CCCNC2)cc1 (stereo not drawn) [P-5, 3-piperidinemethyl 2-(ρ-isobutylphenyl) propionate.AcOH]",Psoriasis-like lesions,Chinese White rabbits,the lesions were resolved
"CC(=O)O.CCN(CC)CCOC(=O)Cc1c(C)n(C(=O)c2ccc(Cl)cc2)c2ccc(OC)cc12 [P-11, diethylaminoethyl 1-(p-chlorobenzoyl)-5-methoxy-2-methylindole 3-acetate.AcOH]",Weight of nude mice,[1],21 ± 2
"CC(=O)O.CCN(CC)CCOC(=O)Cc1cc(C)c(C(=O)c2ccc(Cl)cc2)n1C [P-14, diethylaminoethyl 5-(4-Chlorobenzoyl)-1,4-dimethyl-1H-pyrrole-2-acetate.AcOH]",Psoriasis-like lesions,Chinese White rabbits,the lesions were resolved
"CC(=O)O.CCc1cccc2c3c([nH]c12)C(CC)(CC(=O)OCCN(CC)CC)OCC3 (stereo not drawn) [P-15, diethylaminoethyl 1,8-diethyl-1,3,4,9-tetrahydropyrano-[3,4-b]indole-1-acetate.AcOH]",Psoriasis-like lesions,Chinese White rabbits,the lesions were resolved
"CC(=O)O.CCN(CC)CCOC(=O)Cc1cccc(C(=O)c2ccc(Br)cc2)c1N [P-17, diethylaminoethyl 2-amino-3-(4-bromo-benzoyl)benzeneacetate.AcOH]",Psoriasis-like lesions,Chinese White rabbits,the lesions were resolved
"C=CCOc1ccc(CC(=O)OCCN(CC)CC)cc1Cl.CC(=O)O [P-18, diethylaminoethyl 3-chloro-4-(2-propenyloxy)benzeneacetate.AcOH]",Psoriasis-like lesions,Chinese White rabbits,the lesions were resolved
CC(=O)O.CCN(CC)CCOC(=O)COC(=O)Cc1c(C)n(C(=O)c2ccc(Cl)cc2)c2ccc(OC)cc12 [P-20],Psoriasis-like lesions,Chinese White rabbits,the lesions were resolved
"CC(=O)O.CCN(CC)CCOC(=O)Cc1sc(-c2ccccc2)nc1-c1ccc(Cl)cc1 [P-21, diethylaminoethyl 4-(4-chlorophenyl)-2-phenyl-5-thiazoleacetate.AcOH]",Psoriasis-like lesions,Chinese White rabbits,the lesions were resolved
"CC(=O)O.CCN(CC)CCOC(=O)Cc1cn(-c2ccccc2)nc1-c1ccc(Cl)cc1 [P-22, diethylaminoethyl 3-(4-chlorophenyl)-1-phenyl-1H-pyrazole-4-acetate.AcOH]",Psoriasis-like lesions,Chinese White rabbits,the lesions were resolved
CC(=O)O.O=C(OCCCN1CCCC1)c1ccccc1Nc1cccc(C(F)(F)F)c1 [P-48],Weight of nude mice,[1],22 ± 3
"CN(C)CCCC(=O)OC1=C(C(=O)Nc2nccs2)N(C)S(=O)(=O)c2ccccc21.Cl [P-52, N-(2-thiazoyl)-4-N,N-dimethylaminobutyryloxy-2-methyl-2H,1,2-benzothiazine-3-car boxamide 1,1-dioxide.HCl]",Tumor size,[2],690 ± 250 mm^3
"CCN(CC)CCOC(=O)c1cc(NC(C)=O)ccc1OC(C)=O [P-58, diethylaminoethyl 5-acetamido-acetylsalicylate]","Triglycerides, Baseline",[3],5.9 ± 0.5 mmol/L
same,"Cholesterol (total), Average",[3]; [8],4.9 ± 0.4 mmol/L
same,"Triglycerides, Average",[3]; [8],2.8 ± 0.2 mmol/L
same,"Cholesterol (total), Average",[4],5.4 ± 0.4 mmol/L
same,"Blood glucose, type I diabetic mice, Baseline",[5],27.1 ± 3 mmol/L
same,"Blood glucose, type I diabetic mice, Average",[5],7.9 ± 1 mmol/L
same,"Blood glucose, diabetic rats, Baseline",[6],17.1 ± 3 mmol/L
same,"Blood glucose, normal rats, Average",normal rats,7.1 ± 1 mmol/L
"CC(=O)Oc1ccccc1C(=O)Oc1ccccc1C(=O)Oc1ccccc1C(=O)O.CCN(CC)CCOC(=O)c1ccccc1OC(=O)c1ccccc1OC(C)=O [P-60, diethylaminoethyl acetylsalicylsalicylate. acetylsalicylsalicylsalicylic acid salt]","Triglycerides, Baseline",[3],6.2 ± 0.5 mmol/L
same,"Cholesterol (total), Average",[3]; [8],5.0 ± 0.3 mmol/L
same,"Triglycerides, Baseline",[4]; [9],5.7 ± 0.6 mmol/L
same,"Cholesterol (total), Average",[4],5.2 ± 0.3 mmol/L
same,"Blood glucose, type I diabetic mice, Baseline",[5],25.5 ± 3 mmol/L
same,"Blood glucose, type I diabetic mice, Average",[5],8.6 ± 1 mmol/L
same,"Blood glucose, diabetic rats, Baseline",[6],15.5 ± 3 mmol/L
same,"Blood glucose, diabetic rats, Average","[6]; transdermal, equal to 20 mg/kg of NSAIAs once per day for 5 weeks, measured every 3 days, second to fifth week",8.6 ± 1 mmol/L
same,"Blood glucose, normal rats, Baseline",normal rats; [9],6.6 ± 1 mmol/L
same,"Blood glucose, normal rats, Average",normal rats,7.5 ± 1 mmol/L
"CC(C(=O)O)c1cccc(C(=O)c2ccccc2)c1 (stereo not drawn) [ketoprofen, reference compound]",Drug found in rat tissues or plasma after topical application of the parent drug itself,[7],None of these drugs was found
